Experiments:
[1] = compared with F3P; cited from earlier work
[2] = Glycosylating activity and lability
Description: A difficult problem encountered in the medical treatment of diabetes has been the inability to identify those diabetic patients who are at risk of experiencing some diabetes-associated pathologic condition, so as to effect timely intervention. […] Kato, M., Hayase, F., Shin, D. B., Oimomi, M. and Baba, S. (1989), The Maillard Reaction in Aging, Diabetes and Nutrition, J. W. Baynes and V. M. Monnier, eds, at 69-84 (Liss, New York, 1989).

[3] = pKa of the phosphorylated metabolites (Table 1); format: physicochemical
Description: While the toxic potential and precise structures of compounds a and b are not known, they have many characteristics in common with S3P and F3P, such as unique chemical shifts, large ^1 H-^31 P spin-spin coupling constants and unusually low pKa' values (see Table 1). In these properties, Compounds a and b differ substantially from other phosphomonoesters and thus appear to belong to the same class of compounds as S3P and F3P. […] There is a good correlation between these elevated concentrations and the presence of clinical symptoms of diabetic complications such as retinopathy, peripheral neuropathy and peripheral vascular disease. This correlation is especially striking when one compares the sum of the concentrations of compounds a and b with the concentration of S3P ([a]+[b]/[S3P]).
Compound (at pH 7.5) (Hz) pKa

erythrocytes = assay: Effect of fructose-3-phosphate on red cell viability, 31P NMR; format: cell-based, human
Procedure: FIGS. 3A-C are ^31 P NMR spectra showing the effect of fructose-3-phosphate on red cell viability.
Spectra were collected in 250-5000 scans using a 60° pulse and a 1.5 sec. repetition rate.
FIGS. 3A-C illustrates the results of an experiment which confirms that this indeed is the case for erythrocytes. […] This phenomenon indicates very strongly that F3P is indeed a toxic agent which, at sufficiently high concentration, leads to an irreversible decline in cell function and ultimately to cell death.

[4] = erythrocytes loaded with F3P, then 12 hrs. in fructose-free medium

Row | SMILES | glycosylating and cross-linking potency [1] | glycosylating potency [2] | lability ([2]; especially in the presence of amines, breaks down to 3-deoxyglucosone) | pKa [3] | toxicity to erythrocytes (erythrocytes; at sufficiently high concentration) | concentration of ATP (erythrocytes; [4]) | hemolysis of the cells (erythrocytes; [4])
1 | O=CC(=O)C[C@H](O)[C@H](O)CO [Compound 3dG, 3-deoxyglucosone] | even more potent Maillard glycosylating and cross-linking agent | – | – | – | – | – | –
2 | O=C(CO)[C@@H](OP(=O)(O)O)[C@H](O)[C@H](O)CO [Compound F3P, fructose-3-phosphate] | – | relatively potent glycosylating agent | quite labile | 5.6 | toxic agent | dramatic decrease | extensive hemolysis
3 | O=P(O)(O)O[C@@H]([C@H](O)[C@H](O)CO)[C@@H](O)CO [Compound S3P, sorbitol-3-phosphate] | – | – | – | 5.4 | – | – | –

— patent US5231031A, “Method for assessing risk of diabetes-associated pathologic conditions and efficacy of therapies for such conditions” (priority 1990, dated 1993)
